Data from patent publication US10081609B2, “Compounds for inducing proliferation and differentiation of cells, and methods of use thereof” (The Broad Institute, Inc., priority 2013, dated 2018).

Experiments:
[1] = test system: iPS-derived endothelial cells; test: Differentiation of iPS-derived endothelial cells (nitric oxide); assay type: cell-based
Description: Cells were assayed for nitric oxide (NO), a mature marker for endothelial cells. CB=FPH2, M=FH1, E=PH1, while Null and DMSO are control runs with no additive and vehicle only, respectively.

[2] = test system: human primary hepatocytes; test: Expansion of human primary hepatocytes on growth-arrested J2-3T3 feeder layer in 12-well plates (imaging, cell counting, FACS, biochemical assays); assay type: cell-based; conditions: 20 μM on days 1 and 5, 7 days culture
Description: (§1) Culture media were collected and frozen at −20° C. until analysis. Albumin content was measured through sandwich ELISA assays (MP Biomedicals, Fitzgerald, Bethyl Laboratories) using horseradish peroxidase detection and 3,3′,5,5′-tetramethylbenzidine (TMB, Fitzgerald Industries) as a substrate. Urea concentration was determined colorimetrically using diacetylmonoxime with acid and heat (Stanbio Labs). To quantify CYP450 activity, at 48 hours after small molecule exposure, cultures were incubated with substrates (coumarin from Sigma for CYP2A6, luciferin-IPA from Promega for CYP3A4) for 4 hours at 37° C. Incubation medium was collected and metabolite concentration quantified via luminescence, or fluorescence after hydrolization of potential metabolite conjugates by β-glucuronidase/arylsulfatase (Roche, Ind.).
To characterize the effects of FPH1 and FPH2 outside of the screening platform, human primary hepatocytes were seeded at a density of ˜20,000 cells/cm^2, into standard 12-well tissue culture plates on top of a feeder layer of growth-arrested J2-3T3s. These cells were cultured for 7 days, during which time a single compound/FPH was supplemented into the media on days 1 and 5 at a concentration of 20 μM. Treated hepatocyte colonies increased in size over time, with more hepatocytes populating each colony (FIG. 2D, 2E).
To characterize the degree of proliferation and to obtain a doubling time, cells were counted and fluorescence-activated cell sorting (FACS) was performed (FIG. 2H). For cell counting, FPH-treated cells were trypsinized after seven days in culture. The number of cells was quantified using an automated cell counter. The number of hepatocytes was obtained by subtracting the number of fibroblasts from the total number of cells found in the corresponding co-culture. For FACS analysis, growth arrested J2-3T3s were labeled with CM-DiI prior to initiation of co-culture so that hepatocytes can be identified via negative selection. To enable cell counting during FACS, each sample was supplemented with fluorescent counting beads. […] Over 7 days, FPH1 induced hepatocyte doublings at a rate that is consistent with reported liver regeneration kinetics in vivo.
To assess the phenotype of the treated hepatocytes, imaging, biochemical analyses and gene expression profiling were performed. […] Albumin secretion and urea synthesis, a surrogate marker of nitrogen metabolism, were both stable throughout FPH treatment (FIG. 3A top and middle). Metabolic functions were assessed via examinations of cytochrome P450 (CYP450) activity and canalicular transport. […] Gene expression profiling confirmed that there are no significant differences between FPH-treated and untreated hepatocytes (FIG. 3C).

iHeps = test: CYP450 activities of treated iHeps through isoenzyme-specific probes; assay type: cell-based, human
Description: as §1
The ability of compounds of the invention to affect the differentiation and maturation of iHeps was tested. Undifferentiated iPS cells were cultured on Matrigel, supported by primary mouse embryonic fibroblasts. […]
To confirm the staining results, secreted levels of albumin and AFP via ELISA, and CYP450 activities through isoenzyme-specific probes that are either fluorescent or luminescent were measured. […]

[3] = test system: human primary hepatocytes; test: High-throughput liver platform, primary screening: hepatocyte proliferation by automated high-content imaging (hepatocyte nuclei numbers); assay type: cell-based; conditions: primary screening
Description: In order to avoid species-specific differences and cell line mutations, the screen was conducted with human primary hepatocytes. Traditionally, chemical screening on such cells has been hindered by their availability in large quantities as well as their rapid loss of viability and phenotype in vitro. Recent advances in cryopreservation technologies allowed enough primary human cells to be stored for screening; these cells are maintained through co-cultivation with non-parenchymal cells. Co-cultures of primary human hepatocytes with murine embryonic J2-3T3 fibroblasts were recently shown to maintain normal hepatocyte phenotype for weeks. These in vitro platforms consisted of hepatocytes surrounded by a co-planar population of fibroblasts. While sufficient for stabilizing hepatocyte functions in vitro, such platforms may limit normal hepatocyte expansion due to contact inhibition. Thus, for this screen, a sparse population of hepatocytes was co-cultivated on top of a confluent feeder layer of J2-3T3 fibroblasts within 384-well plates (FIG. 1A top). This screening platform stabilized hepatocyte phenotypic functions in vitro (FIG. 1A bottom) and was compatible with two separate high-throughput readouts developed for this screen.
The primary readout detected hepatocyte proliferation via automated high-content imaging. This assay quantified hepatocyte nuclei numbers, using nuclear morphologies to separate the hepatocyte and fibroblast subpopulations that co-exist within the screening platform. When visualized with Hoechst stain, hepatocyte nuclei were smaller and more uniform in texture while fibroblast nuclei were larger and punctated (FIG. 1A bottom). Leveraging this distinction, automated image analyses was developed that utilized machine learning algorithms to classify nuclei types and tabulate hepatocyte nuclei numbers. […] Besides quantifying hepatocyte nuclei that have completed mitosis, the number of nuclei in the process of mitosis were also quantified. Two additional analysis pipelines were built to detect nuclear morphologies consistent with cells undergoing metaphase and anaphase.
FIG. 1B top summarizes the workflow of the screen. Primary screening was done on human primary hepatocytes, preconditioned for seven days by non-parenchymal cells in the screening platform. Upon stabilization in vitro, cultures were treated with the chemical library for 48 hours. All compounds were tested in duplicates, at a single concentration of 15 μM. This single concentration was selected via a pilot screen of ˜2,000 small molecules. All 12,480 small molecules were initially tested on a single donor of cryopreserved hepatocytes (donor a) in order to eliminate noise from donor-to-donor variability. Following compound treatment, media supernatants were collected for functional analyses via ELISA and cultures were fixed in 4% paraformaldehyde for proliferation analyses via imaging.
To identify proliferation hits, three image-based readouts—one each to quantify the number of (1) hepatocyte nuclei in interphase, (2) nuclei in metaphase and (3) nuclei in anaphase—were integrated. z Scores were converted into p values, which were then used to generate ranked lists of compounds based on the efficacy and consistency of effects across the different proliferation readouts. Efficacy was assessed by the product of p values (pprod=pinter×pmeta×pana); consistency was evaluated by the maximum of p values (pmax=max(pinter, pmeta, pana). Compounds were considered proliferation hits if pprod<1×10^−6 and pmax<0.25. Functional hits were selected by an ELISA […]. Compounds with ELISA z>3.0 were eliminated as toxic. 93 compounds met all hit selection criteria, qualifying as Functional Proliferation Hits (FPH); FIG. 1B bottom illustrates the types of compounds that constituted this set of hits.

CYP3A4 activity increase (iHeps): 45 times
SMILES: Cc1ccc(Cl)cc1N(CC(=O)Nc1c(F)cccc1F)S(C)(=O)=O [FPH2, 2-(N-(5-chloro-2-methylphenyl)methylsulfonamido)-N-(2,6-difluorophenyl)acetamide]
differentiation of iPS-derived endothelial cells (nitric oxide) [1]: induce differentiation
Ki67 staining / number of Ki67-positive nuclei [2]: more elevated
increase in the area of albumin-positive colonies [2]: ≤ 3.5 fold
number of nuclei undergoing mitosis [3]: elevated
increase in hepatocyte nuclei numbers during primary screening ([3]; 15 μM, 48 hours): 1.5 ×
